SMILES strings stand for the structures. Counter-ions that a name gives are not always drawn.

For the first test, the system named is Acinetobacter baumannii ATCC17961. Kind of test: Antimicrobial susceptibility testing: 90% growth inhibitory concentration (IC90) determination. It counts as cell-based. To be noted: Acinetobacter baumannii ATCC17961; Iso-Sensitest broth; growth by OD 600 nm over 16 h; 90% growth inhibitory concentration; read-out: ATCC 17961 IC90. How it is done: Antimicrobial Susceptibility Testing:
90% Growth Inhibitory Concentration (IC90) Determination
The in vitro antimicrobial activity of the compounds was determined according to the following procedure:
The assay used a 10-points Iso-Sensitest broth medium to measure quantitatively the in vitro activity of the compounds against Acinetobacter baumannii ATCC17961.
Stock compounds in DMSO were serially twofold diluted (e.g. range from 50 to 0.097 μM final concentration) in 384 wells microtiter plates and inoculated with 49 μl the bacterial suspension in Iso-Sensitest medium to have a final cell concentration of ˜5×10^(5) CFU/ml in a final volume/well of 50 ul/well. Microtiter plates were incubated at 35±2° C.
Bacterial cell growth was determined with the measurement of optical density at λ=600 nm each minutes over a time course of 16 h. Growth inhibition was calculated during the logarithmic growth of the bacterial cells with determination of the concentration inhibiting 50% (IC50) and 90% (IC90) of the growth.
Table 1 provides the 90% growth inhibitory concentrations (IC90) in micromoles per liter of the compounds of present invention obtained against the strain Acinetobacter baumannii ATCC17961.
What is called IC90 is the concentration needed for an effect of 90%. Take `Cc1nc(-n2cc(-c3cnc(C(=O)Nc4ccc(C(=O)N5CCN(C(=O)C6CC[N+](C)(C)CC6)CC5)c(Cl)c4)n3C)c(C(F)(F)F)n2)ccc1N` [Example A11, 5-[1-(5-amino-6-methyl-2-pyridyl)-3-(trifluoromethyl)pyrazol-4-yl]-N-[3-chloro-4-[4-(1,1-dimethylpiperidin-1-ium-4-carbonyl)piperazine-1-carbonyl]phenyl]-1-methyl-imidazole-2-carboxamide]: the IC90 amounted to 230 nM. Same read-out and setting: the figure for `Cn1c(-c2cn(-c3cc(Cl)c(N)cn3)nc2C(F)(F)F)cnc1C(=O)Nc1ccc(C(=O)N2CCN(C(=O)C3CC[N+](C)(C)CC3)CC2)c(Cl)c1` [Example A12, 5-[1-(5-amino-4-chloro-2-pyridyl)-3-(trifluoromethyl)pyrazol-4-yl]-N-[3-chloro-4-[4-(1,1-dimethylpiperidin-1-ium-4-carbonyl)piperazine-1-carbonyl]phenyl]-1-methyl-imidazole-2-carboxamide] is 270 nM; for `Cn1c(-c2cn(-c3ncccn3)nc2C(F)(F)F)cnc1C(=O)Nc1ccc(C(=O)N2CCN(C(=O)[C@@H]3C[C@@H](O)C[N+]3(C)C)CC2)c(Cl)c1` [Example B2, N-[3-chloro-4-[4-[(2S,4R)-4-hydroxy-1,1-dimethyl-pyrrolidin-1-ium-2-carbonyl]piperazine-1-carbonyl]phenyl]-1-methyl-5-[1-pyrimidin-2-yl-3-(trifluoromethyl)pyrazol-4-yl]imidazole-2-carboxamide; formate] it is 1600 nM. For the molecule `Cn1c(-c2cn(-c3ncccn3)nc2C(F)(F)F)cnc1C(=O)Nc1ccc(C(=O)N2CCN(C(=O)[C@@H]3[C@@H](O)CC[N+]3(C)C)CC2)c(Cl)c1` [Example B3, N-[3-chloro-4-[4-[(2S,3S)-3-hydroxy-1,1-dimethyl-pyrrolidin-1-ium-2-carbonyl]piperazine-1-carbonyl]phenyl]-1-methyl-5-[1-pyrimidin-2-yl-3-(trifluoromethyl)pyrazol-4-yl]imidazole-2-carboxamide; formate], the IC90 was found to be 3800 nM. Same read-out and setting: then `Cn1c(-c2cn(-c3ncccn3)nc2C(F)(F)F)cnc1C(=O)Nc1ccc(C(=O)N2CCN(C(=O)C3CC[N+](C)(C)CC3O)CC2)c(Cl)c1` (stereo not drawn) [Example B4, N-[3-chloro-4-[4-(3-hydroxy-1,1-dimethyl-piperidin-1-ium-4-carbonyl)piperazine-1-carbonyl]phenyl]-1-methyl-5-[1-pyrimidin-2-yl-3-(trifluoromethyl)pyrazol-4-yl]imidazole-2-carboxamide; formate], with 1900 nM; and `COc1ccc(-n2cc(-c3cnc(C(=O)Nc4ccc(C(=O)N5CCN(C(=O)[C@@H]6CC[N+](C)(C)C[C@H]6O)CC5)c(Cl)c4)n3C)c(C(F)(F)F)n2)nc1` [Example B5, N-[3-chloro-4-[4-[(3S,4R)-3-hydroxy-1,1-dimethyl-piperidin-1-ium-4-carbonyl]piperazine-1-carbonyl]phenyl]-5-[1-(5-methoxy-2-pyridyl)-3-(trifluoromethyl)pyrazol-4-yl]-1-methyl-imidazole-2-carboxamide], with 310 nM; and `COc1ccc(-n2cc(-c3cnc(C(=O)Nc4ccc(C(=O)N5CCN(C(=O)[C@@H]6C[C@@H](O)C[N+]6(C)C)CC5)c(Cl)c4)n3C)c(C(F)(F)F)n2)nc1` [Example B6, N-[3-chloro-4-[4-[(2S,4R)-4-hydroxy-1,1-dimethyl-pyrrolidin-1-ium-2-carbonyl]piperazine-1-carbonyl]phenyl]-5-[1-(5-methoxy-2-pyridyl)-3-(trifluoromethyl)pyrazol-4-yl]-1-methyl-imidazole-2-carboxamide; formate], with 360 nM.

With `Cn1c(-c2cn(-c3ccc([N+](=O)[O-])cn3)nc2C(F)(F)F)cnc1C(=O)Nc1ccc(C(=O)N2CCN(C(=O)[C@@H]3[C@@H](O)CC[N+]3(C)C)CC2)c(Cl)c1` [Example B7, N-[3-chloro-4-[4-[(2S,3S)-3-hydroxy-1,1-dimethyl-pyrrolidin-1-ium-2-carbonyl]piperazine-1-carbonyl]phenyl]-1-methyl-5-[1-(5-nitro-2-pyridyl)-3-(trifluoromethyl)pyrazol-4-yl]imidazole-2-carboxamide; formate], the IC90 amounted to 1600 nM.

As to `Cn1c(-c2cn(-c3ncccn3)nc2C(F)(F)F)cnc1C(=O)Nc1ccc(C(=O)N2CC[N+](C)(C)CC2)c(Cl)c1` [Example B9, 4-(2-chloro-4-(1-methyl-5-(1-(pyrimidin-2-yl)-3-(trifluoromethyl)-1H-pyrazol-4-yl)-1H-imidazole-2-carboxamido)benzoyl)-1,1-dimethylpiperazin-1-ium], the IC90 came out at 5200 nM. Take `Cn1c(-c2cn(-c3ncccn3)nc2C(F)(F)F)cnc1C(=O)Nc1ccc(C(=O)N2CCN(C(=O)C3CC[N+](C)(CC(N)=O)CC3)CC2)c(Cl)c1` (stereo not drawn) [Example C2, N-[4-[4-[1-(2-amino-2-oxo-ethyl)-1-methyl-piperidin-1-ium-4-carbonyl]piperazine-1-carbonyl]-3-chloro-phenyl]-1-methyl-5-[1-pyrimidin-2-yl-3-(trifluoromethyl)pyrazol-4-yl]imidazole-2-carboxamide; formate]: the IC90 came out at 1100 nM. On to `Cn1c(-c2cn(-c3ccc(N)cn3)nc2C(F)(F)F)cnc1C(=O)Nc1ccc(C(=O)N2CCN(C(=O)C3CC[N+](C)(C)CC3)CC2)c(Cl)c1` [Example D3, 5-[1-(5-amino-2-pyridyl)-3-(trifluoromethyl)pyrazol-4-yl]-N-[3-chloro-4-[4-(1,1-dimethylpiperidin-1-ium-4-carbonyl)piperazine-1-carbonyl]phenyl]-1-methyl-imidazole-2-carboxamide; formate], for which the IC90 is 150 nM. `Cn1c(-c2cn(-c3ccc(N)cn3)nc2C(F)(F)F)cnc1C(=O)Nc1ccc(C(=O)N2CCN(C(=O)C3(O)CC[N+](C)(C)CC3)CC2)c(Cl)c1` [Example D10, 5-[1-(5-amino-2-pyridyl)-3-(trifluoromethyl)pyrazol-4-yl]-N-[3-chloro-4-[4-(4-hydroxy-1,1-dimethyl-piperidin-1-ium-4-carbonyl)piperazine-1-carbonyl]phenyl]-1-methyl-imidazole-2-carboxamide; formate]: the IC90 is 330 nM. Consider `Cn1c(-c2cn(-c3ccc(N)cn3)nc2C(F)(F)F)cnc1C(=O)Nc1ccc(C(=O)N2CCN(C(=O)C[N+]3(C)CCC(O)C3)CC2)c(Cl)c1` (stereo not drawn) [Example D11, 5-[1-(5-amino-2-pyridyl)-3-(trifluoromethyl)pyrazol-4-yl]-N-[3-chloro-4-[4-[2-(3-hydroxy-1-methyl-pyrrolidin-1-ium-1-yl)acetyl]piperazine-1-carbonyl]phenyl]-1-methyl-imidazole-2-carboxamide; formate], for which the IC90 worked out at 210 nM. `Cn1c(-c2cn(-c3ccc(N)cn3)nc2C(F)(F)F)cnc1C(=O)Nc1ccc(C(=O)NCC2CCN(C(=O)C3CC[N+](C)(C)CC3)CC2)c(Cl)c1` [Example D12, 5-[1-(5-amino-2-pyridyl)-3-(trifluoromethyl)pyrazol-4-yl]-N-[3-chloro-4-[[1-(1,1-dimethylpiperidin-1-ium-4-carbonyl)-4-piperidyl]methylcarbamoyl]phenyl]-1-methyl-imidazole-2-carboxamide; formate]: the concentration for an effect of 90% (IC90) is 1300 nM. On the same count and under the same terms, the figure for `Cn1c(-c2cn(-c3ccc(N)cn3)nc2C(F)(F)F)cnc1C(=O)Nc1ccc(C(=O)N2CCN(C(=O)[C@@H]3COCC[N+]3(C)C)CC2)c(Cl)c1` [Example D13, 5-[1-(5-amino-2-pyridyl)-3-(trifluoromethyl)pyrazol-4-yl]-N-[3-chloro-4-[4-[(3S)-4,4-dimethylmorpholin-4-ium-3-carbonyl]piperazine-1-carbonyl]phenyl]-1-methyl-imidazole-2-carboxamide; formate] is 420 nM.

The test is the same for the next values; noted with them: Acinetobacter baumannii, ATCC17961, 16 h, read-out: ATCC 17961 IC90.
Regarding `Cn1c(-c2cn(-c3ncccn3)nc2C(F)(F)F)cnc1C(=O)Nc1ccc(C(=O)N2CCN(C(=O)C3CC[N+](C)(C)CC3)CC2)c(Cl)c1` [Example B1, N-[3-Chloro-4-[4-(1,1-dimethylpiperidin-1-ium-4-carbonyl)piperazine-1-carbonyl]phenyl]-1-methyl-5-[1-pyrimidin-2-yl-3-(trifluoromethyl)pyrazol-4-yl]imidazole-2-carboxamide; formate], the IC90 stood at 940 nM. Consider `Cn1c(-c2cn(-c3ncccn3)nc2C(F)(F)F)cnc1C(=O)Nc1ccc(C(=O)N2CCN(C(=O)C3CC[N+](C)(CC4CNC4)CC3)CC2)c(Cl)c1` (stereo not drawn) [Example C1, N-[4-[4-[1-(Azetidin-3-ylmethyl)-1-methyl-piperidin-1-ium-4-carbonyl]piperazine-1-carbonyl]-3-chloro-phenyl]-1-methyl-5-[1-pyrimidin-2-yl-3-(trifluoromethyl)pyrazol-4-yl]imidazole-2-carboxamide; formate], for which the IC90 turned out to be 410 nM. `Cn1c(-c2cn(-c3ccc(N)cn3)nc2C(F)(F)F)cnc1C(=O)Nc1ccc(C(=O)N2CCN(C(=O)[C@@H]3C[C@@H](O)C[N+]3(C)C)CC2)c(Cl)c1` [Example D1, 5-[1-(5-Amino-2-pyridyl)-3-(trifluoromethyl)pyrazol-4-yl]-N-[3-chloro-4-[4-[(2S,4R)-4-hydroxy-1,1-dimethyl-pyrrolidin-1-ium-2-carbonyl]piperazine-1-carbonyl]phenyl]-1-methyl-imidazole-2-carboxamide; formate]: the 90% effect concentration (IC90) came out at 310 nM.

The values are drawn from patent publication US12655126B2, “Imidazole-pyrazole derivatives as antibacterials” (Hoffmann-La Roche Inc., priority 2020, dated 2026).
